Source: US11618747B2, “LXR modulators with bicyclic core moiety” (OrsoBio, Inc., priority 2018, dated 2023)
Where two headings read alike, the source gives them in different places.

Assays:
full length (FL) LXRβ = molecular target: T1, full length (FL) LXRβ (Homo sapiens, UniProt P55055, DUP175-175); assay: LXR Gal4 reporter transient transfection assay (FL-M2H Gal4β); format: cell-based; details: HEK293 cells
T1 construct: the full length (FL) proteins of LXRα (amino acids 1-447); NP005684; NP009052; expressed in transfected cells; host or cells: HEK293
T1 sequence (P55055 with tags, fused parts or gaps DUP175-175): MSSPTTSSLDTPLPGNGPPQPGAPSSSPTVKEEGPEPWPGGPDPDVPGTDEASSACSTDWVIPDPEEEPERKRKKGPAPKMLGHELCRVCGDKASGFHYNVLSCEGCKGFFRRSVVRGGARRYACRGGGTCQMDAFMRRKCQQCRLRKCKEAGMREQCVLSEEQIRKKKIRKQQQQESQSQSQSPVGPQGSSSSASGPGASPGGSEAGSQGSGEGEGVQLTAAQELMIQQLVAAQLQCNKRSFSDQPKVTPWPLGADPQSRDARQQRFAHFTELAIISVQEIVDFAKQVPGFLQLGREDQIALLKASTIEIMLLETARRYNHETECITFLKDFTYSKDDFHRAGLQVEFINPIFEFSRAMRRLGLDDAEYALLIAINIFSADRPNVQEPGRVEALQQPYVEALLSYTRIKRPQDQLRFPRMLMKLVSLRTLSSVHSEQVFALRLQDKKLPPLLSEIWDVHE
Outline: (§1)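 Mammalian two-hybrid in HEK293: AD-LXR (FL or LBD) + BD-cofactor (SRC1 coactivator or NCoR corepressor domain), pFR-Luc reporter, pRL-CMV normaliser; PEI transfection. Compound added 4 h later (DMSO ≤0.2% final), 16 h incubation at 37 °C. Firefly/Renilla luminescence measured sequentially in lysate.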

[1] = molecular target: T2, LXRβ ligand-binding domain (Homo sapiens, UniProt P55055, DUP175-175); assay: TR-FRETβ activity assay (NCoA3 coactivator peptide recruitment); format: biochemical
T2 construct: amino acids 156-461; NP009052; made in house; host or cells: E. coli
T2 sequence (P55055 with tags, fused parts or gaps DUP175-175 limits assumed): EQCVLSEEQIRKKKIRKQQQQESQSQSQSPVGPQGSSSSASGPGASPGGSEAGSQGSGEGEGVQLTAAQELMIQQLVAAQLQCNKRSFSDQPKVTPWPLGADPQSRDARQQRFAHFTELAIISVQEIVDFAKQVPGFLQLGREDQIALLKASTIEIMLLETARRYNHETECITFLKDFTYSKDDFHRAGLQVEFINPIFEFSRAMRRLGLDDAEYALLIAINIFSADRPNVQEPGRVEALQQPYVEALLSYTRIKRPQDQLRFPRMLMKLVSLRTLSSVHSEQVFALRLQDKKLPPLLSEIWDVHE
Outline: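 GST-tagged human LXRβ LBD (aa 156-461, E. coli) at 76 nM with 400 nM biotinylated NCoA3 peptide in Tris/HCl pH 6.8, 240 mM KCl, BSA, 0.002% Triton-X-100, plus 1 μM 24(S)-25-epoxycholesterol as prestimulating agonist. Compounds at 50 μM down to 0.002 μM, 1 h at 4 °C. Coactivator recruitment by TR-FRET (Tb cryptate/XL665, 615/665 nm), triplicates.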

[2] = Short term HFD mouse model: plasma and liver exposure; format: in vivo, mice (C57BL/6J); details: HFD mice, 4 h after last dose
Procedure: Short Term HFD Mouse Model:
The in vivo transcriptional regulation of several LXR target genes by LXR modulators was assessed in mice.
For this, C57BL/6J were purchased from Elevage Janvier (Rennes, France) at the age of 8 weeks. After an acclimation period of two weeks, animals were preferred on a high fat diet (HFD) (Ssniff Spezialdiäten GmbH, Germany, Surwit EF D12330 mod, Cat. No. E15771-34), with 60 kcal % from fat plus 1% (w/w) extra cholesterol (Sigma-Aldrich, St. Louis, Mo.) for 5 days. Animals were maintained on this diet during treatment with LXR modulators. The test compounds were formulated in 0.5% hydroxypropylmethylcellulose (HPMC) and administered in three doses (from 1.5 to 20 mg/kg each) by oral gavage according to the following schedule: on day one, animals received treatment in the morning and the evening (ca. 17:00), on day two animals received the final treatment in the morning after a 4 h fast and were sacrificed 4 h thereafter. Animal work was conducted according to the national guidelines for animal care in Germany.
Upon termination, liver was collected, dipped in ice cold PBS for 30 seconds and cut into appropriate pieces. Pieces were snap frozen in liquid nitrogen and stored at −80° C. For the clinical chemistry analysis from plasma, alanine aminotransferase (ALT, IU/mL), cholesterol (CHOL, mg/dL) and triglycerides (TG, mg/dL) were determined using a fully-automated bench top analyzer (Respons®910, DiaSys Greiner GmbH, Flacht, Germany) with system kits provided by the manufacturer.

full length (FL) LXRα = molecular target: T3, full length (FL) LXRα (Homo sapiens, UniProt Q13133); assay: LXR Gal4 reporter transient transfection assay (FL-M2H Gal4α); format: cell-based; details: HEK293 cells
T3 construct: the full length (FL) proteins of LXRα (amino acids 1-447); NP005684; expressed in transfected cells; host or cells: HEK293
T3 sequence (Q13133 1-447): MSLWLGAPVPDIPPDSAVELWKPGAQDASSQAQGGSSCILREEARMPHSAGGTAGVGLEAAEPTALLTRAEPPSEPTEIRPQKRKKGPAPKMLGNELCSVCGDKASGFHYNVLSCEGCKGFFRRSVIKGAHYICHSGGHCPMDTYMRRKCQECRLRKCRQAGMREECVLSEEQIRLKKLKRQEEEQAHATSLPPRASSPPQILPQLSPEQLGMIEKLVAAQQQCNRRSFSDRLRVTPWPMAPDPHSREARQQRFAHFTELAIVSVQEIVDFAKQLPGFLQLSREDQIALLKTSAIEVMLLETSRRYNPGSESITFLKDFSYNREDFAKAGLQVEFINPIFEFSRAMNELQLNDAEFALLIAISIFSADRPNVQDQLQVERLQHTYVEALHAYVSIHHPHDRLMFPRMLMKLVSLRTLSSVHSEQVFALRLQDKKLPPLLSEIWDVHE
Outline: as §1

[3] = full length LXRβ, read-out: FL-M2H Gal4β (EC50 range)
[4] = TR-FRET, 1 μM 24(S)-25-epoxycholesterol prestimulation, read-out: FRETβ (EC50 range)
[5] = 1 μM 24(S)-25-epoxycholesterol as prestimulating agonist
[6] = 1 μM 24(S)-25-epoxycholesterol as prestimulating agonist, read-out: FRETβ potency
[7] = full length LXRα, read-out: FL-M2H Gal4α (EC50 range)

Row | SMILES | EC50 (full length (FL) LXRβ; [3]) [nM] | EC50 [1, 4] [nM] | EC50 (full length (FL) LXRα; [7]) [nM] | also measured
1 | CS(=O)(=O)NC(=O)c1ccc(-c2cccc(-c3c(-c4c(C#N)cccc4C#N)c4cc(F)ccc4n3S(=O)(=O)c3ccc(C(F)F)cc3)c2)c(Cl)c1 [32/5] | < 100 | < 100 |  | liver exposure 4 h ([2]; three oral doses of 10 mg/kg): B (300 nM to ≤1 μM); liver/plasma ratio 4 h ([2]; three oral doses of 10 mg/kg): B (5 to ≤30); plasma exposure 4 h ([2]; three oral doses of 10 mg/kg): D (D: <100 nM)
2 | N#Cc1sccc1-c1c(-c2cccc(-c3ccc(C(=O)O)cc3Cl)c2)n(S(=O)(=O)c2ccc(C(F)F)cc2)c2ccc(F)cc12 [11/17] | < 100 | < 100 |  | liver exposure 4 h ([2]; three oral doses of 20 mg/kg): D (>10 μM); liver/plasma ratio 4 h ([2]; three oral doses of 20 mg/kg): C (30 to ≤100); plasma exposure 4 h ([2]; three oral doses of 20 mg/kg): C (C: 100 nM to <300 nM)
3 | N#Cc1cccc(-c2c(-c3cccc(-c4ccc(C(=O)O)cc4Cl)c3)n(S(=O)(=O)c3ccc(C(F)F)cc3)c3ccc(F)cc23)c1 [C11/48, reference compound] | < 100 | < 100 |  | FL-M2H Gal4β efficacy (value in brackets) (full length (FL) LXRβ): 123%; EC50 (full length (FL) LXRβ; read-out: FL-M2H Gal4β potency): 32 nM; FL-M2H Gal4α efficacy (value in brackets) (full length (FL) LXRα): 118%; EC50 (full length (FL) LXRα; read-out: FL-M2H Gal4α potency): 62 nM; FRETβ efficacy (value in brackets) [1, 5]: −96%; EC50 [1, 6]: 49 nM
4 | Cc1ccc(S(=O)(=O)n2c(-c3cccc(-c4ccc(C(=O)O)cc4Cl)c3)c(-c3ccc(C)cc3C#N)c3cc(F)ccc32)cc1 [11/4] | < 100 | 100 to 1000 | < 100 | 
5 | O=C(O)c1ccc(-c2cccc(-c3c(-c4cccc5c4OCO5)c4cc(F)ccc4n3S(=O)(=O)c3ccc(C(F)F)cc3)c2)c(Cl)c1 [11/44] | < 100 | < 100 | < 100 | 
6 | COc1sccc1-c1c(-c2cccc(N3CC(C(=O)O)C3)c2)n(S(=O)(=O)c2ccc(C)cc2)c2ccc(F)cc12 [3/3] | 100 to 1000 | 1000 to 10000 | 100 to 1000 | 
7 | Cc1ccc(S(=O)(=O)n2c(-c3cccc(-c4cc(C(=O)O)n[nH]4)c3)c(-c3ccsc3C#N)c3cc(F)ccc32)cc1 [12/6] | 1000 to 10000 | 1000 to 10000 | 100 to 1000 | 
8 | O=C(O)c1ccc(-c2cccc(-c3c(-c4ccccc4)c4cc(F)ccc4n3S(=O)(=O)c3ccc(C(F)F)cc3)c2)c(Cl)c1 [C11/39, reference compound] | < 100 | 100 to 1000 | < 100 | FL-M2H Gal4β efficacy (value in brackets) (full length (FL) LXRβ): 140%; EC50 (full length (FL) LXRβ; read-out: FL-M2H Gal4β potency): 14 nM; FL-M2H Gal4α efficacy (value in brackets) (full length (FL) LXRα): 117%; EC50 (full length (FL) LXRα; read-out: FL-M2H Gal4α potency): 14 nM; FRETβ efficacy (value in brackets) [1, 5]: −91%; EC50 [1, 6]: 104 nM
9 | CCc1ccc(S(=O)(=O)n2c(-c3cccc(N4CC(C(=O)O)C4)c3)c(-c3ccsc3C#N)c3cc(F)ccc32)cc1 [3/10] | < 100 | 100 to 1000 | 100 to 1000 | 
10 | O=C(O)c1ccc(-c2cccc(-c3c(-c4ccsc4C4COC4)c4cc(F)ccc4n3S(=O)(=O)c3ccc(C(F)F)cc3)c2)c(Cl)c1 [3/63] | < 100 | < 100 | < 100 | 
11 | COc1ccc(S(=O)(=O)n2c(-c3cccc(N4CC(C(=O)O)C4)c3)c(-c3ccsc3C#N)c3cc(F)ccc32)cc1 [3/33] | < 100 | 1000 to 10000 | 100 to 1000 | 
12 | N#Cc1ccccc1-c1c(-c2cccc(-c3ccc(C(=O)O)c(O)c3Cl)c2)n(S(=O)(=O)c2ccc(C(F)F)cc2)c2ccc(F)cc12 [11/32] | < 100 | < 100 | < 100 | 
13 | Cn1ccc(-c2c(-c3cccc(-c4ccc(C(=O)O)cc4Cl)c3)n(S(=O)(=O)c3ccc(C(F)F)cc3)c3ccc(F)cc23)c1C#N [11/68] | < 100 | < 100 | < 100 | 
14 | Cc1ccc(S(=O)(=O)n2c(-c3cccc(-c4ccc(C(=O)O)cc4Cl)c3)c(-c3ccsc3C#N)c3cc(F)ccc32)cc1F [11/19] | < 100 | 100 to 1000 | < 100 | 
15 | COc1ccc(S(=O)(=O)n2c(-c3cccc(N4CC(C(=O)O)C4)c3)c(-c3ccsc3C#N)c3cc(F)ccc32)cn1 [5/8] | 100 to 1000 | 100 to 1000 | 100 to 1000 | 
16 | COc1cccnc1-c1c(-c2cccc(-c3ccc(C(=O)O)cc3Cl)c2)n(S(=O)(=O)c2ccc(C(F)F)cc2)c2ccc(F)cc12 [11/40] | < 100 | 100 to 1000 | < 100 | 
17 | COc1cc(-c2c(-c3cccc(-c4ccc(C(=O)O)cc4Cl)c3)n(S(=O)(=O)c3ccc(C(F)F)cc3)c3ccc(F)cc23)c2c(C#N)cnn2c1 [11/46] | < 100 | < 100 | < 100 | 
18 | Cc1ccc(S(=O)(=O)n2c(-c3cccc(-c4ccc(C(C)(O)C(=O)O)cc4)c3)c(-c3ccsc3C#N)c3cc(F)ccc32)cc1 (stereo not drawn) [3/55] | < 100 | 100 to 1000 | < 100 | 
19 | COc1cc(C(=O)O)ccc1-c1cccc(-c2c(-c3ccccc3C#N)c3cc(F)ccc3n2S(=O)(=O)c2ccc(C(F)F)cc2)c1 [11/29] | < 100 | < 100 | < 100 | 
20 | Cc1ccc(S(=O)(=O)n2c(-c3cccc(-c4ccc(CN(C)C)cc4)c3)c(-c3ccsc3C#N)c3cc(F)ccc32)cc1 [8/1] | < 100 | 100 to 1000 | < 100 | 
21 | COc1cc(F)cc2c(-c3ccsc3C#N)c(-c3cccc(-c4ccc(C(=O)O)cc4)c3)n(S(=O)(=O)c3ccc(C)cc3)c12 [3/53] | < 100 | < 100 | < 100 | 
22 | O=C(O)c1ccc(-c2cccc(-c3c(-c4ccsc4C(F)F)c4cc(F)ccc4n3S(=O)(=O)c3ccc(Cl)cc3)c2)c(Cl)c1 [11/21] | < 100 | < 100 | < 100 | 
23 | N#Cc1scnc1-c1c(-c2cccc(-c3cc(F)c(C(=O)O)cc3Cl)c2)n(S(=O)(=O)c2ccc(C(F)F)cc2)c2ccc(F)cc12 [11/9] | < 100 | < 100 | < 100 | 
24 | N#Cc1sccc1-c1c(-c2cccc(-c3ccc(C(=O)O)cc3Cl)c2)n(S(=O)(=O)c2ccc(F)cc2)c2ccc(F)cc12 [11/18] | < 100 | 100 to 1000 | < 100 | 
